Test results reported in the NIST ThermoML archive (doi:10.1016/j.jct.2006.03.003).
Numbers after ± are expanded uncertainties.

Experiments:
[1] = 298.15 K; 101.33 kPa; Liquid
[2] = xn = mol fraction of the nth substance listed; conditions: 298.15 K; 101 kPa; Liquid; x1 = 0.61

mass density [2]	Structure (SMILES)	mass density [1]
–	CC(C)=O [acetone]	784.65 ± 0.31 kg/m3
–	CCC(C)=O [butanone]	799.75 ± 0.29 kg/m3
1516.5 ± 1.8 kg/m3	COC(F)(F)C(F)(C(F)(F)F)C(F)(F)F [methyl nonafluoroisobutyl ether] + COC(F)(F)C(F)(F)C(F)(F)C(F)(F)F	–
–	CCC(=O)CC [pentan-3-one]	809.09 ± 0.28 kg/m3
